Data published in patent US8802597B2, “Herbicidal pyrimidines” (E I du Pont de Nemours and Company, priority 2003, dated 2014).

How the values were obtained:
Type in all cases: in vivo
rice (Oryza sativa) = test: Test B flooded paddy test; conditions: Flood, 1000 g ai/ha; scale 0 to 100
In short: (§1)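 Visual injury scoring (0 = no effect, 100 = complete control) versus controls made 13 to 15 days after treatment in the greenhouse. Test species were grown in flooded paddy to the 2-leaf stage: rice, barnyardgrass, umbrella sedge, duck salad.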

[1] = test system: umbrella sedge (Cyperus difformis); test: Test B flooded paddy test; conditions: Flood, 1000 g ai/ha; scale 0 to 100
In short: as §1

[2] = test system: duck salad (Heteranthera limosa); test: Test B flooded paddy test; conditions: Flood, 1000 g ai/ha; scale 0 to 100
In short: as §1

[3] = test system: barnyardgrass (Echinochloa crus-galli); test: Test B flooded paddy test; conditions: Flood, 1000 g ai/ha; scale 0 (no effect) to 100 (complete control)
In short: as §1

[4] = test system: blackgrass (Alopecurus myosuroides); test: Test B postemergence; conditions: for Blackgrass plant response rating: 125 g ai/ha, scale 0 to 100 (0 no effect, 100 complete control); for Plant response rating, Blackgrass: 500 g ai/ha, scale 0 to 100
In short: (§2)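 Greenhouse whole-plant test; surfactant-containing non-phytotoxic solvent formulation; pre- and postemergence applications made simultaneously; post plants 2–18 cm, 1- to 4-leaf; visual scoring at 13–15 days on 0–100 scale relative to controls.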

wild oat (Avena fatua) = test: Test B postemergence; conditions: for Oat, Wild plant response rating: 125 g ai/ha, scale 0 to 100 (0 no effect, 100 complete control); for Plant response rating, Oat, Wild: 500 g ai/ha, scale 0 to 100
In short: as §2

[5] = test system: pigweed (Amaranthus retroflexus); test: Test B pre/postemergence
From the text: (§3) Seeds selected from barnyardgrass (Echinochloa crus-galli), Surinam grass (Brachiaria decumbens), cocklebur (Xanthium strumarium), corn (Zea mays), crabgrass (Digitaria sanguinalis), giant foxtail (Setaria faberii), lambsquarters (Chenopodium album), morningglory (Ipomoea coccinea), pigweed (Amaranthus retroflexus), velvetleaf (Abutilon theophrasti), and wheat (Triticum aestivum) were planted and treated preemergence with test chemicals formulated in a non-phytotoxic solvent mixture which included a surfactant.
(§4) At the same time, plants selected from these crop and weed species and also blackgrass (Alopecurus myosuroides) and wild oat (Avena fatua) were treated with postemergence applications of test chemicals formulated in the same manner. Plants ranged in height from 2 to 18 cm (1- to 4-leaf stage) for postemergence treatments. Plant species in the flooded paddy test consisted of rice (Oryza sativa), umbrella sedge (Cyperus difformis), duck salad (Heteranthera limosa) and barnyardgrass (Echinochloa crus-galli) grown to the 2-leaf stage for testing. Treated plants and controls were maintained in a greenhouse for 13 to 15 days, after which time all species were compared to controls and visually evaluated. Plant response ratings, summarized in Table B, are based on a scale of 0 to 100 where 0 is no effect and 100 is complete control. A dash (-) response means no test result.

[6] = test system: giant foxtail (Setaria faberii); test: Test B pre/postemergence
From the text: as §3, §4

[7] = test system: crabgrass (Digitaria sanguinalis); test: Test B pre/postemergence
From the text: as §3, §4

[8] = test system: cocklebur (Xanthium strumarium); test: Test B pre/postemergence
From the text: as §3, §4

[9] = test system: barnyardgrass (Echinochloa crus-galli); test: Test B pre/postemergence
From the text: as §3, §4

[10] = test system: Surinam grass (Brachiaria decumbens); test: Test B pre/postemergence
From the text: as §3, §4

[11] = test system: velvetleaf (Abutilon theophrasti); test: Test B pre/postemergence
From the text: as §3, §4

[12] = test system: wheat (Triticum aestivum); test: Test B pre/postemergence
From the text: as §3, §4

corn (Zea mays) = test: Test B pre/postemergence
From the text: as §3, §4

[13] = test system: morningglory (Ipomoea coccinea); test: Test B pre/postemergence
From the text: as §3, §4

[14] = test system: lambsquarters (Chenopodium album); test: Test B pre/postemergence
From the text: as §3, §4

[15] = Postemergence, 125 g ai/ha, scale 0 to 100 (0 no effect, 100 complete control)
[16] = Postemergence, 500 g ai/ha, scale 0 to 100
[17] = Preemergence, 125 g ai/ha, scale 0 to 100 (0 no effect, 100 complete control)
[18] = Preemergence, 500 g ai/ha, scale 0 to 100 (0 no effect, 100 complete control)

CON=Cc1nc(C2CC2)nc(N)c1Br [Compound 48]
Plant response rating, Rice (rice (Oryza sativa)): 0
Plant response rating, Sedge, Umbrella [1]: 0
Plant response rating, Ducksalad [2]: 20
Plant response rating, Barnyardgrass [3]: 20
Blackgrass plant response rating [4]: 0
Plant response rating, Blackgrass [4]: 20
Oat, Wild plant response rating (wild oat (Avena fatua)): 0
Plant response rating, Oat, Wild (wild oat (Avena fatua)): 20
Pigweed plant response rating [5, 15]: 60
Plant response rating, Pigweed [5, 16]: 80
Plant response rating, Pigweed [5, 17]: 60
Pigweed plant response rating [5, 18]: 80
Foxtail, Giant plant response rating [6, 15]: 10
Plant response rating, Foxtail, Giant [6, 16]: 10
Plant response rating, Foxtail, Giant [6, 17]: 30
Foxtail, Giant plant response rating [6, 18]: 50
Crabgrass plant response rating [7, 15]: 10
Plant response rating, Crabgrass [7, 16]: 20
Plant response rating, Crabgrass [7, 17]: 10
Cocklebur plant response rating [8, 15]: 20
Plant response rating, Cocklebur [8, 16]: 80
Plant response rating, Cocklebur [8, 17]: 0
Cocklebur plant response rating [8, 18]: 20
Barnyardgrass plant response rating [9, 15]: 10
Plant response rating, Barnyardgrass [9, 16]: 20
Plant response rating, Barnyardgrass [9, 17]: 0
Barnyardgrass plant response rating [9, 18]: 10
Surinam Grass plant response rating [10, 15]: 0
Plant response rating, Surinam Grass [10, 16]: 10
Plant response rating, Surinam Grass [10, 17]: 30
Surinam Grass plant response rating [10, 18]: 60
Velvetleaf plant response rating [11, 15]: 10
Plant response rating, Velvetleaf [11, 16]: 60
Plant response rating, Velvetleaf [11, 17]: 0
Velvetleaf plant response rating [11, 18]: 0
Wheat plant response rating [12, 15]: 0
Plant response rating, Wheat [12, 16]: 20
Plant response rating, Wheat [12, 17]: 0
Plant response rating, Wheat [12, 18]: 30
Corn plant response rating (corn (Zea mays); [15]): 0
Plant response rating, Corn (corn (Zea mays); [16]): 0
Plant response rating, Corn (corn (Zea mays); [17]): 0
Corn plant response rating (corn (Zea mays); [18]): 0
Morningglory plant response rating [13, 15]: 30
Plant response rating, Morningglory [13, 16]: 80
Plant response rating, Morningglory [13, 17]: 0
Morningglory plant response rating [13, 18]: 30
Lambsquarters plant response rating [14, 15]: 60
Plant response rating, Lambsquarters [14, 16]: 80
Plant response rating, Lambsquarters [14, 17]: 70
Lambsquarters plant response rating [14, 18]: 100

CC=NNc1nc(C2CC2)nc(C(=O)OC)c1Br [Compound 124]
Plant response rating, Rice (rice (Oryza sativa)): 0
Plant response rating, Sedge, Umbrella [1]: 0
Plant response rating, Ducksalad [2]: 0
Plant response rating, Barnyardgrass [3]: 0
Blackgrass plant response rating [4]: 0
Plant response rating, Blackgrass [4]: 40
Oat, Wild plant response rating (wild oat (Avena fatua)): 0
Plant response rating, Oat, Wild (wild oat (Avena fatua)): 30
Pigweed plant response rating [5, 15]: 50
Plant response rating, Pigweed [5, 16]: 90
Plant response rating, Pigweed [5, 17]: 20
Plant response rating, Pigweed [5, 18]: 70
Foxtail, Giant plant response rating [6, 15]: 10
Plant response rating, Foxtail, Giant [6, 16]: 20
Plant response rating, Foxtail, Giant [6, 17]: 0
Plant response rating, Foxtail, Giant [6, 18]: 0
Crabgrass plant response rating [7, 15]: 10
Plant response rating, Crabgrass [7, 16]: 40
Plant response rating, Crabgrass [7, 17]: 0
Plant response rating, Crabgrass [7, 18]: 0
Cocklebur plant response rating [8, 15]: 30
Plant response rating, Cocklebur [8, 16]: 80
Plant response rating, Cocklebur [8, 17]: 10
Plant response rating, Cocklebur [8, 18]: 60
Barnyardgrass plant response rating [9, 15]: 0
Plant response rating, Barnyardgrass [9, 16]: 40
Plant response rating, Barnyardgrass [9, 17]: 0
Plant response rating, Barnyardgrass [9, 18]: 0
Surinam Grass plant response rating [10, 15]: 0
Plant response rating, Surinam Grass [10, 16]: 0
Plant response rating, Surinam Grass [10, 17]: 0
Plant response rating, Surinam Grass [10, 18]: 0
Velvetleaf plant response rating [11, 15]: 20
Plant response rating, Velvetleaf [11, 16]: 50
Plant response rating, Velvetleaf [11, 17]: 20
Plant response rating, Velvetleaf [11, 18]: 50
Wheat plant response rating [12, 15]: 0
Plant response rating, Wheat [12, 16]: 30
Plant response rating, Wheat [12, 17]: 0
Plant response rating, Wheat [12, 18]: 0
Corn plant response rating (corn (Zea mays); [15]): 0
Plant response rating, Corn (corn (Zea mays); [16]): 0
Plant response rating, Corn (corn (Zea mays); [17]): 0
Plant response rating, Corn (corn (Zea mays); [18]): 0
Morningglory plant response rating [13, 15]: 50
Plant response rating, Morningglory [13, 16]: 100
Plant response rating, Morningglory [13, 17]: 10
Plant response rating, Morningglory [13, 18]: 60
Lambsquarters plant response rating [14, 15]: 40
Plant response rating, Lambsquarters [14, 16]: 90
Plant response rating, Lambsquarters [14, 17]: 0
Plant response rating, Lambsquarters [14, 18]: 70
